Measured values as given in patent publication US12497359B2, “Acrylamide derivatives” (NRG Therapeutics Ltd, priority 2020, dated 2025).
Values after ≈ are worked out from the molar mass of the structure shown.

Tests used:
[1] = tested on: mPTP; assay: mPTP activity assay in isolated rat brain mitochondria; format: biochemical; conditions: for mPTP Rat brain pIC50: isolated rat brain mitochondria
Description: MPTP activity was measured in brain mitochondria freshly isolated from female Sprague Dawley (250 to 300 gram) rats. Anaesthetised rats were perfused in-situ with ˜40 ml cold Dulbecco's Phosphate Buffered Saline (DPBS), then brains dissected and transferred into 30 ml Isolation Buffer (225 mM mannitol, 75 mM sucrose, 1 mM EGTA, adjusted to pH 7.4 with 1 M NaOH). The brain was minced using tweezers and a scalpel into ˜5 mm pieces then transferred into a 50 ml Potterton Dounce homogenization tube on ice containing 10 ml ice-cold isolation buffer (as above with addition of Complete Protease inhibitor; 1 tablet per 50 ml buffer). Homogenisation was carried out using a teflon pestle at 1800 rpm. The slurry was centrifuged at 2000 g for 10 min at 4° C., then the supernatant centrifuged at 12,000 g for 9 min. The pellet was resuspended with a dounce homogeniser in isolation buffer as above but with the addition of 0.02% digitonin, centrifuged at 12,000 g for 11 min and finally resuspended in 5 ml modified isolation buffer (as above but with EGTA reduced to 0.1 mM).
Test compounds were prepared in 384 well polypropylene assay plates as described above for the liver mitochondria assay. A stock mitochondria/Fluo5N assay solution was prepared in 5.6 ml assay buffer (120 mM mannitol, 40 mM MOPS, 5 mM KH2PO4, 60 mM KCl, 10 mM pyruvate, 2 mM malate, 2 mM MgCl2, 20 μM ADP, 1.26 μM oligomycin A, adjusted to pH 7.4) supplemented with Fluo5N pentapotassium salt (2 μM) and 1 ml mitochondria suspension, then transferred (15 μl) into the assay plate containing test compounds and incubated for 10 min at RT. Assay plates were then transferred to a FLIPR Tetra plate reader (Molecular Devices). Dye fluorescence was then measured every 3 sec for a total of 10 min. After 12 sec, a 2.5 μl bolus of Ca2+(75 μM) was added from a source plate containing 675 μM CaCl2 in FLIPR assay buffer. IC50 values for test compounds were calculated using the fluorescence value collected at the 10 min timepoint with % inhibition calculated using the DMSO control and cyclosporin A values at […].

[2] = FaSSIF solubility; format: physicochemical; conditions: kinetic from dmso stock, Fasted state simulated intestinal fluid, 2 hr at 25° C.
Description: Test compounds were prepared as 10 mM stocks in DMSO and 15 μl samples transferred in duplicate into 1.5 mL glass flat bottom vials (BioTech Solutions). Fasted state simulated intestinal fluid (FaSSIF) or PBS (pH 7.4) was added to each vial to final volume of 500 μl. One PTFE encapsulated stir stick (V&P Scientific) was placed in each vial before sealing with PTFE/SIL plugs (BioTech Solutions). Vials were shaken at 1100 rpm for 2 hr at 25° C. Samples were then filtered through MultiScreen Solvinert filter plates (Millipore) via vacuum filtration. Aliquots of filtrate (5 μl) plus 5 μl DMSO were diluted in 490 μl 50% acetonitrile in water containing internal standard. The filtrate was analysed and quantified against a standard of known concentration using LC-MS/MS. Solubility values of the test compound and control compound were calculated as follows: [Sample]=(Area ratiosample*INJ VOL STD*DFsample*[STD])/(Area ratio STD*INJ VOLsample).

[3] = Hepatocyte clearance assay, human; format: in vitro ADME; conditions: cryopreserved primary human hepatocytes, average value from two experiments, read-out: Human heps intrinsic clearance (CLint)
Description: In vitro clearance studies were performed in primary rat and human hepatocytes (BioIVT). Vials of cryopreserved rat or human hepatocytes were thawed in a 37° C. water bath for 2 min. Cells were transferred into thawing medium (Williams' Medium E containing 30% Percoll, 1× GlutaMAX-1, 15 mM HEPES, 5% fetal bovine serum (FBS), 4 μg/ml insulin, 1 μM dexamethasone), centrifuged at 100 g for 10 min then resuspended in culture medium (Leibovitz's L-15 Medium) at a concentration of 0.5×10^6 viable cells/mL (number of viable cells assessed using AO/PI staining). Hepatocytes (198 μL) were transferred into wells of a 96-well non-coated plate and placed in a 37° C. incubator for 10 min. Test compound solutions were prepared from 10 mM stocks in DMSO, diluted to 100 μM in 50% (v/v in water) acetonitrile. Test compound samples (2 μl) were added to each well of hepatocytes and incubated at 37° C. Samples (25 μl) were collected at t=0, 15, 30, […] and 120 min, mixed with 6 volumes (150 μl) of acetonitrile containing internal standard (100 nM alprazolam, 200 nM caffeine and 100 nM tolbutamide), vortexed for 5 min and centrifuged for 45 min at 3220 g. An aliquot of supernatant (100 μL) was diluted with 100 μL ultra-pure water, and the mixture was used for LC/MS/MS analysis. All incubations were performed in duplicate. Peak areas were determined from extracted ion chromatograms. The slope value, k, was determined by linear regression of the natural logarithm of the remaining percentage of the parent drug vs. incubation time curve. The in vitro half-life (in vitro t1/2) was determined from the slope value: in vitro t1/2=0.693/k. Conversion of the in vitro t1/2 (in min) into the in vitro intrinsic clearance (in vitro CLint, in μL/min/1×10^6 cells) was done using the following equation (mean of duplicate determinations): • in vitro CLint=kV/N • V=incubation volume (0.2 mL) • N=number of hepatocytes per well (0.1×10^6 cells). Microsomal Clearance Assay

[4] = Microsomal clearance assay, rat liver microsomes; format: in vitro ADME; conditions: average value from two experiments, read-out: Rat liver microsomes intrinsic clearance (CLint)
Description: The microsomal stability of test compounds was evaluated using rat liver microsomes (BioIVT) with and without the cofactors nicotinamide adenine dinucleotide phosphate (NADPH) and uridine-diphosphate-glucuronic acid (UDPGA). Reactions were performed in a final volume of 250 μl pre-warmed (37° C.) 100 mM phosphate buffer containing 5 mM MgCl2, 0.025 mg/ml alamethicin, and 0.5 mg/ml rat liver microsomes. NADPH and UDPGA were included at 1 mM and 2 mM respectively, where appropriate. Reactions were started with the addition of 1 μM (final concentration) test compound. Verapamil was used as the positive control. Solutions were incubated in a water bath at 37° C. and aliquots collected at 0.5, 5, 15, 30 and 60 min. Reactions were stopped by the addition of 5 volumes of cold acetonitrile with internal standards (200 nM caffeine and 100 nM tolbutamide). Samples were centrifuged at 3220 g for 40 min. An aliquot of supernatant was diluted 1:1 In ultra-pure H20, then used for LC-MS/MS analysis. Peak areas were determined from extracted ion chromatograms. The slope value, k, was determined by linear regression of the natural logarithm of the remaining percentage of the parent drug vs. incubation time curve. The in vitro half-life (in vitro t1/2) was determined from the slope value: in vitro t1/2=0.693/k. Conversion of the in vitro t1/2 (min) into the in vitro intrinsic clearance (in vitro CLint, in μL/min/mg protein) was done using the following equation (mean of duplicate determinations): in vitro Clint=(0.693/t1/2)*(Vol of incubation (μl)/amount of protein (mg)).

Row | SMILES | activity in the rat brain mitochondria assay ([1]; comparison among Example compounds, in words) | mPTP Rat brain pIC50 [1] | solubility at 2 h [2] | hepatocyte CLint at 1 µM [3] | microsomal CLint at 1 µM [4]
1 | C[C@H]1Cc2ccccc2[C@@H]1NC(=O)/C=C/c1ccc2cn[nH]c2c1 (single isomer, unassigned) [Example 14c] | highest activity | 8.4 | 8 µM (≈ 2.54 µg/mL) | 40.4 µL/min/1e6 cells | 
2 | C[C@@H]1COc2ccccc2[C@@H]1NC(=O)/C=C/c1ccc2cn[nH]c2c1 (single isomer, unassigned) [Example 15d, (E)-3-(1H-indazol-6-yl)-N-(3-methylchroman-4-yl)acrylamide] |  | 7.6 | 7 µM (≈ 2.33 µg/mL) | < 3 µL/min/1e6 cells | < 3 µL/min/mg
3 | O=C(/C=C/c1ccc2cn[nH]c2c1)N[C@@H]1CCc2ccccc21 [Example 3, (R,E)-N-(2,3-dihydro-1H-inden-1-yl)-3-(1H-indazol-6-yl)acrylamide] |  | 7.3 | 7 µM (≈ 2.12 µg/mL) |  | 52 µL/min/mg
4 | COCc1ccccc1NC(=O)/C=C/c1ccc2cn[nH]c2c1 [Example 29, (E)-3-(1H-indazol-6-yl)-N-(2-(methoxymethyl)phenyl)acrylamide] |  | 6.8 | 73 µM (≈ 22.4 µg/mL) | < 3 µL/min/1e6 cells | 10 µL/min/mg
